Experimental data as given in US10695322B2 (priority 2016, dated 2020).
“Also recorded” adds a separate entry of the source.

Key:
LdtMt1 = LdtMt1 (Mycobacterium tuberculosis, UniProt O53638); format: binding, M. tuberculosis
LdtMt2 [1] = molecular target: T1, LdtMt2 (Mycobacterium tuberculosis, UniProt I6Y9J2); format: binding, M. tuberculosis
LdtMt2 [2] = molecular target: T1, LdtMt2; experiment: biochemical; set-up: species or system M. tuberculosis; conditions: read-out: kinact/Kapp ratio
[3] = test system: LdtMt2 variants Y318F, H336N, H352N and C354S; format: binding, M. tuberculosis
[4] = test system: mutant LdtMt2 (Y318A, Y318F, H336N, H352A, H352N, C354A, C354S); format: binding, M. tuberculosis

T1 sequence (I6Y9J2 56-408 limits assumed): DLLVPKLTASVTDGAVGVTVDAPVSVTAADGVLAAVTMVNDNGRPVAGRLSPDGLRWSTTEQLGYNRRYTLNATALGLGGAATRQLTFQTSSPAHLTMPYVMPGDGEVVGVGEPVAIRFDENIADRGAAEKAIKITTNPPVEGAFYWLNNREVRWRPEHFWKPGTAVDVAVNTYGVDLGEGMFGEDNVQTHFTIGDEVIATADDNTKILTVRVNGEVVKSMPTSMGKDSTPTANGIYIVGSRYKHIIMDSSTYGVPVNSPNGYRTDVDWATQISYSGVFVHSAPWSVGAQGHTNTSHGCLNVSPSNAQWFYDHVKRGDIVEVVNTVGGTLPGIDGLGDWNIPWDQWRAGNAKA
Sequence of LdtMt1 (O53638 32-251 limits assumed): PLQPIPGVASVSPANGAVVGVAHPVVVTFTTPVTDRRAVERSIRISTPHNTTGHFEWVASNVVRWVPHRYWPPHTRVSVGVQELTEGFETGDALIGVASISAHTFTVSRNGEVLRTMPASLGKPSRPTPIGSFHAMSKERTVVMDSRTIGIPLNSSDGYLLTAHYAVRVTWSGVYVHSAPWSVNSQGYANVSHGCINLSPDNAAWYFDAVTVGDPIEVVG

| Structure (SMILES) | reaction and covalent adduct formation (LdtMt1) | reaction and covalent adduct formation (LdtMt2 [1]) | kinact/KI (LdtMt2 [2]) [M⁻¹ s⁻¹] | binding affinity [3] | adduct formation [4] |
| --- | --- | --- | --- | --- | --- |
| COC(=O)CSC1=C(C(=O)[O-])N2C(=O)[C@H]([C@@H](C)O)[C@H]2[C@H]1C.[Na+] [T205, sodium (4R,5S,6S)-6-((R)-1-hydroxyethyl)-3-((2-methoxy-2-oxoethyl)thio)-4-methyl-7-oxo-1-azabicyclo[3.2.0]hept-2-ene-2 carboxylate] | reacted and formed covalent adducts | reacted and formed covalent adducts | – | – | – |
| CCCOC(=O)CSC1=C(C(=O)O)N2C(=O)[C@H]([C@@H](C)O)[C@H]2[C@H]1C [T206] | reacted and formed covalent adducts | reacted and formed covalent adducts | – | – | – |
| C[C@@H](O)[C@H]1C(=O)N2C(C(=O)O)=C(SCC(=O)OC3CCCCC3)[C@H](C)[C@H]12 [T208] | reacted and formed covalent adducts | reacted and formed covalent adducts | 9330 | – | – |
| CSC1=C(C(=O)O)N2C(=O)[C@H]([C@@H](C)O)[C@H]2[C@H]1C [T210] | reacted and formed covalent adducts | reacted and formed covalent adducts | – | poor binding affinities | – |
| C[C@@H](O)[C@H]1C(=O)N2C(C(=O)[O-])=C(SC3Cn4cnc[n+]4C3)[C@H](C)[C@H]12 (stereo partly drawn) [biapenem] | – | – | – | – | no adducts could be detected |
| C[C@@H](O)[C@H]1C(=O)N2C(C(=O)O)=C([C@H]3CCCO3)S[C@H]12 [faropenem] | – | – | – | either a complete loss of or no appreciable binding affinities | same adducts were detected; also recorded: failed to produce any covalent adduct |
| C[C@@H](O)[C@H]1C(=O)N2C(C(=O)O)=C(SC3CN(C4=NCCS4)C3)[C@H](C)[C@H]12 [tebipenem] | – | – | – | either a complete loss of or no appreciable binding affinities | same adducts were detected; also recorded: failed to produce any covalent adduct |
